Assay: xn = mol fraction of the nth substance listed
Conditions: 100 kPa

| viscosity (303 K, x1 = 0.4462) [mPa·s] | viscosity (303 K, x1 = 0.6298) [mPa·s] | viscosity (313 K, x1 = 0.0098) [mPa·s] | viscosity (313 K, x1 = 0.0219) [mPa·s] | viscosity (313 K, x1 = 0.037) [mPa·s] | viscosity (313 K, x1 = 0.1184) [mPa·s] | viscosity (313 K, x1 = 0.1728) [mPa·s] | viscosity (313 K, x1 = 0.4462) [mPa·s] | viscosity (313 K, x1 = 0.6298) [mPa·s] | viscosity (318 K, x1 = 0.4462) [mPa·s] | viscosity (318 K, x1 = 0.6298) [mPa·s] | viscosity (323 K, x1 = 0.4462) [mPa·s] | viscosity (323 K, x1 = 0.6298) [mPa·s] | viscosity (303 K, x1 = 0.5482) [mPa·s] | viscosity (313 K, x1 = 0.5482) [mPa·s] | viscosity (318 K, x1 = 0.5482) [mPa·s] | viscosity (323 K, x1 = 0.5482) [mPa·s] | Structure (SMILES) |
| --- | --- | --- | --- | --- | --- | --- | --- | --- | --- | --- | --- | --- | --- | --- | --- | --- | --- |
| 17.21 | 35.74 | 0.819 | 0.971 | 1.24 | 2.753 | 3.908 | 12.64 | 24.64 | 11 | 20.86 | 9.66 | 17.88 |  |  |  |  | CCCC[n+]1ccn(C)c1.O=[N+]([O-])[O-] + O |
|  |  |  |  |  |  |  |  |  |  |  |  |  | 42.67 | 28.9 | 24.3 | 20.63 | CCCCCCCCn1cc[n+](C)c1.F[B-](F)(F)F + O |

From a compilation of properties of binary mixtures (doi:10.1002/aic.14507)
